From patent US10662174B2, “BTK inhibitor” (Hubei Bio-Pharmaceutical Industrial Technological Institute …, priority 2015, dated 2020)

Molecular target: T1, BTK kinase (Homo sapiens, UniProt Q06187)
T1 construct: purchased Invitrogen PR5442A
Test: Assay of inhibition activity of BTK in vitro (HTRF kit, read on Envision)
Type: biochemical
Settings: not given
Experimental: Assay of Inhibition Activity of BTK In Vitro
The inhibition of compounds on BTK kinase was evaluated by […] detected by Envision, using the IC50 value of the compounds as index.
BTK kinase: Invitrogen-PR5442A
HTRF Assay Kit: Cisbio-62TKOPEJ
Plate for compound preparation: Greiner-781280
Cisbio HTRF Kit: Cisbio-62TKOPEJ
Centrifuge: Eppendorf-5810R
Bravo: Agilent Technologies-Bravo
Gradient Dilution of Compounds: […]
The test compound was dissolved with DMSO to be of 1 mM as a stock solution. Such a stock solution was diluted with DMSO by 10-fold, thereby obtaining an initial solution in a concentration of […] which was added into wells at the second column in a plate. 20 μL DMSO was added to other wells using Bravo. Then, 10 μL of the initial solution was transferred from wells at the second column to wells at the third column, followed by mixing obtained solution in the wells at the third column, thereby obtain a first diluted solution in a concentration of 1/3 μM. Subsequently, 10 μL of the first diluted solution was further transferred from wells at the third column to wells at the fourth column, followed by mixing obtained solution in the wells at the fourth column, thereby obtain a second diluted solution in a concentration of 1/9 μM. Such a three-fold serial dilution was performed 10 times, with 11 solutions in series diluted concentrations and a final diluted solution in a concentration of 0.017 nM obtained.
All diluted solutions were further diluted by 25-fold with ultrapure water, thus obtain test solutions, which were equilibrated at r.t. for 30 min before use.
To 2.5 μL of test solution, which was pipetted into each well of Assay plate using Bravo, 5 μL kinase mixture was added using the multi-channel pipettor. The mixture was centrifuged at 1000 rpm for 20 s, followed by incubation at 23° C. for 30 min. The reaction was initiated by 2.5 μL ATP mixture which was pipetted into the wells by Multidrop.
The reaction mixture of BTK kinase (10 μL) included 1.0 nM BTK, 1 μM biotin-TK1 peptide and 20 μM ATP. The reaction buffer included 50 mM Hepes (pH7.5), 10 mM MgCl2 and 0.01 mM […]. The kinase mixture was reacted in incubator at 23° C. for 90 mim.
The reaction was stopped by adding 10 μL Detection Reagent to each well of Assay plate, and the plate was left in incubator at 23° C. for 1 h before read on Envision.
Data analysis: The IC50 values of compounds were calculated using Excel fit.

T1 sequence (Q06187 whole entry): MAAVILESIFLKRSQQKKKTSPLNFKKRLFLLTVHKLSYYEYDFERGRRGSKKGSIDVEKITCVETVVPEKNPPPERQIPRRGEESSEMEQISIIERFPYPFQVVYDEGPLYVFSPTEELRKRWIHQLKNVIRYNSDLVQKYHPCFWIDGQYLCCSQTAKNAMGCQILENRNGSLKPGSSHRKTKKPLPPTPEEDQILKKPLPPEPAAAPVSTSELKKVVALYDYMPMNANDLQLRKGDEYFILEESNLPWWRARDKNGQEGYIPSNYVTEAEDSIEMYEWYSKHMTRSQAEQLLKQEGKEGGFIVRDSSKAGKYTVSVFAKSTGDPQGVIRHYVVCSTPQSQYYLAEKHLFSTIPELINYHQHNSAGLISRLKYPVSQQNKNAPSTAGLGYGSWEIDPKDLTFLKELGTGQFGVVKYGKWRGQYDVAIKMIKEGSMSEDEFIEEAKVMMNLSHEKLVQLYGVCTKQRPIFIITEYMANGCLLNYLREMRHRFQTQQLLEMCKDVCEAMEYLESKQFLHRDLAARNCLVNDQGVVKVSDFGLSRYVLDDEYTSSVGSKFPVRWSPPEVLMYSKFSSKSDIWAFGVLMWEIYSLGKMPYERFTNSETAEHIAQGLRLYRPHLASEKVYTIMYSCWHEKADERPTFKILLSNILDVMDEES

Structure (SMILES) | IC50 [nM]
CN1CCN(c2ccc(Nc3cc(-c4ccc5c(c4)c(C(=O)c4ccc(C6CC6)cc4F)cn5C)cn(C)c3=O)nc2)CC1 [Example 5] | 1000 to 10000
CN1CCN(C)[C@H](c2ccc(Nc3nc(-c4ccc5c(c4)c(C(=O)c4ccc(C6CC6)cc4F)cn5C)cn(C)c3=O)cc2)C1=O [Example 9] | 1000 to 10000
CN1CCNC(=O)C1c1ccc(Nc2ccc(-c3ccc4c(c3)c(C(=O)c3ccc(C5CC5)cc3F)cn4C)n(C)c2=O)cc1 (stereo not drawn) [Example 16] | 100 to 1000

Same assay, conditions: 1.0 nM BTK, 1 μM biotin-TK1 peptide, 20 μM ATP, 23° C., tested by Envision; read-out: BTK IC50

Structure (SMILES) | IC50 [nM]
C=CC(=O)N1CCC[C@@H](Nc2ncnc(N)c2C(=O)c2ccc(Oc3ccccc3)cc2)C1 [Example 1] | 100 to 1000
C=CC(=O)N1CCC[C@@H](Nc2ncnc3[nH]c(=O)c(-c4ccccc4)cc23)C1 [Example 2] | 1000 to 10000
C=CC(=O)N1CCC[C@@H](Nc2ncnc(N)c2C(=O)c2ccc(N(C)c3ccccc3)cc2)C1 [Example 3] | 1000 to 10000
C=CC(=O)N1CCC[C@@H](Nc2ncnc(N)c2C(=O)c2ccc(Nc3ccccc3)cc2)C1 [Example 4] | 1000 to 10000
Cc1ccn2c(=O)c(-c3cccc(-c4cc(Nc5ccc(N6CCN(C)CC6)cn5)c(=O)n(C)c4)c3C)cnc2c1 [Example 6] | 1000 to 10000
Cc1c(-c2cc(Nc3ccc(N4CCN(C)CC4)cn3)c(=O)n(C)c2)cccc1-c1ccc(-c2ccccc2)n(C)c1=O [Example 7] | 1000 to 10000
C=CC(=O)N1CCC[C@@H](Nc2ncnc3[nH]cc(-c4ccccc4)c(=O)c23)C1 [Example 8] | 1000 to 10000
Cc1ccn2c(=O)c(-c3cccc(-c4cc(Nc5ccc(N6CCN(C)CC6)cn5)c(=O)n(C)c4)c3C)ccc2c1 [Example 10] | 1000 to 10000
Cc1ccn2c(=O)c(-c3cccc(-c4cn(C)c(=O)c(Nc5ccc([C@@H]6C(=O)NCCN6C)cc5)n4)c3C)ccc2c1 [Example 11] | 1000 to 10000
Cc1c(-c2cc(Nc3ccc(C4C(=O)NCCN4C)cc3)c(=O)n(C)c2)cccc1-c1ccc(-c2ccccc2)n(C)c1=O (stereo not drawn) [Example 12] | 1000 to 10000
C=CC(=O)Nc1cccc2c1cnn2-c1nc(Nc2ccc(OCCOC)cc2)ncc1F [Example 13] | 1000 to 10000
C=CC(=O)Nc1ccc2ncn(-c3nc(Nc4ccc(OCCOC)cc4)ncc3F)c2c1 [Example 14] | 1000 to 10000
C=CC(=O)Nc1ccc2cnn(-c3ncnc(Nc4ccc(OCCOC)cc4)n3)c2c1 [Example 15] | 1000 to 10000
C=CC(=O)N1CCC[C@@H](Nc2cc3ncc(-c4ccc(Oc5ccccc5)cc4)c(=O)n3cn2)C1 [Example 17] | 1000 to 10000
C=CC(=O)N1CCC[C@@H](Nc2ncnc(N)c2-n2ncc3cc(Oc4ccccc4)ccc32)C1 [Example 18] | 1000 to 10000
C=CC(=O)N1CCC[C@@H](Nc2ncnc(N)c2-n2ncc3cc(OCCOC)ccc32)C1 [Example 19] | 1000 to 10000
C=CC(=O)N1CCCC(n2nc(-c3ccc(Oc4ccccc4)cc3)c3c(N)n[nH]c(=O)c32)C1 (stereo not drawn) [Example 20] | < 100
C=CC(=O)N1CCCC(c2nc3cnc(Nc4ccc(OCCOC)cc4)nc3[nH]2)C1 (stereo not drawn) [Example 21] | 1000 to 10000
C=CC(=O)Nc1ccc(-c2nc3cnc(Nc4ccc(OCCOC)cc4)nc3[nH]2)cc1 [Example 22] | < 100

Structure (SMILES) | IC50 [nM]
COCCOc1ccc(Nc2ncc3[nH]c(CCN)nc3n2)cc1 [Example 23] | 1000 to 10000
C=CC(=O)Nc1cccc(-n2cnc3cnc(Nc4ccc(OCCOC)cc4)nc32)c1 [Example 24] | 1000 to 10000
C=CC(=O)N1CCC[C@@H](Nc2ncnc(N)c2C(=O)c2ccc(Oc3ccccc3)cc2C)C1 [Example 25] | 100 to 1000
C=CC(=O)N1CCC[C@@H](Nc2ncnc(N)c2C(=O)c2ccc(Oc3ccccc3)cc2F)C1 [Example 26] | 1000 to 10000
C=CC(=O)Nc1ccc2ncn(-c3ncnc(Nc4ccc(OCCOC)cc4)n3)c2c1 [Example 27] | 1000 to 10000
C=CC(=O)N1CCC[C@@H](n2nc(-c3ccc(Oc4ccccc4)cc3)c3c(N)n[nH]c(=O)c32)C1 [Example 28] | < 100
C=CC(=O)Nc1cccc(-n2cnc3cnc(Nc4ccc(Oc5ccccc5)cc4)nc32)c1 [Example 29] | 1000 to 10000
C=CC(=O)N1CCCC(n2c(=O)c(-c3ccc(Oc4ccccc4)cc3)cc3c(N)ncnc32)C1 (stereo not drawn) [Example 30] | 100 to 1000
C=CC(=O)N(C)CCn1nc(-c2ccc(Oc3ccccc3)cc2)c2c(N)n[nH]c(=O)c21 [Example 31] | < 100
C=CC(=O)N1CCC[C@@H](n2nc(-c3ccc(Oc4ccccn4)cc3)c3c(N)n[nH]c(=O)c32)C1 [Example 32] | < 100
C=CC(=O)N1CCC[C@@H](n2nc(-c3ccc(OC4CC4)cc3)c3c(N)n[nH]c(=O)c32)C1 [Example 33] | < 100
CN(C)C/C=C/C(=O)N(C)CCn1nc(-c2ccc(Oc3ccccc3)cc2)c2c(N)n[nH]c(=O)c21 [Example 34] | < 100
C=CC(=O)N1CCC[C@@H](n2nc(-c3ccc(OC4CC5CC5C4)cc3)c3c(N)n[nH]c(=O)c32)C1 (stereo partly drawn) [Example 35] | < 100
Nc1n[nH]c(=O)c2c1c(-c1ccc(Oc3ccccc3)cc1)nn2[C@@H]1CCCN(C(=O)/C=C/CN2CCOCC2)C1 [Example 36] | < 100
C=CC(=O)N1CCC[C@H]1Cn1nc(-c2ccc(Oc3ccccc3)cc2)c2c(N)n[nH]c(=O)c21 [Example 37] | < 100
C=CC(=O)N1CCC[C@@H]1Cn1nc(-c2ccc(Oc3ccccc3)cc2)c2c(N)n[nH]c(=O)c21 [Example 38] | < 100
C=CS(=O)(=O)N[C@H]1CC[C@@H](n2nc(-c3ccc(Oc4ccccn4)cc3)c3c(N)n[nH]c(=O)c32)CC1 [Example 39] | < 100
C=CC(=O)N[C@H]1CC[C@@H](n2nc(-c3ccc(OC4CC5CC5C4)cc3)c3c(N)n[nH]c(=O)c32)CC1 (stereo partly drawn) [Example 41] | < 100
C=CC(=O)N1CCCC(Nc2ncnc(N)c2C(=O)c2ccc(Oc3ccccc3)cc2Cl)C1 (stereo not drawn) [Example 42] | 100 to 1000

Structure (SMILES) | IC50 [nM]
C=CC(=O)N1CCC(n2nc(-c3ccc(Oc4ccccc4)cc3)c3c(N)n[nH]c(=O)c32)C1 (stereo not drawn) [Example 43] | < 100
C=CC(=O)N1CCC[C@@H](n2nc(-c3ccc(Oc4ccc(F)cn4)cc3)c3c(N)n[nH]c(=O)c32)C1 [Example 44] | < 100
CC#CC(=O)N1CCC[C@@H](n2nc(-c3ccc(Oc4ccccc4)cc3)c3c(N)n[nH]c(=O)c32)C1 [Example 45] | < 100
C=CC(=O)N1CC2(CC(n3nc(-c4ccc(Oc5ccccc5)cc4)c4c(N)n[nH]c(=O)c43)C2)C1 [Example 46] | < 100
C=CC(=O)N1CCC[C@@H](n2nc(-c3ccc4c(cnn4-c4ccccc4)c3)c3c(N)n[nH]c(=O)c32)C1 [Example 47] | 1000 to 10000
C=CC(=O)N1CCC[C@@H](n2nc(-c3ccc(-n4cc5ccccc5n4)cc3)c3c(N)n[nH]c(=O)c32)C1 [Example 48] | < 100
C=CC(=O)N1CCC[C@@H](n2nc(-c3ccc(C4OCCO4)cc3)c3c(N)n[nH]c(=O)c32)C1 [Example 49] | < 100
C=CC(=O)N1CCCC(n2nc(-c3ccc(Oc4ccccc4)cc3)c3c(N)nn(CCO)c(=O)c32)C1 (stereo not drawn) [Example 50] | 100 to 1000
C=CC(=O)N1CCCCC(n2nc(-c3ccc(Oc4ccccc4)cc3)c3c(N)n[nH]c(=O)c32)C1 (stereo not drawn) [Example 51] | < 100
C=CC(=O)N1CCCC(n2nc(-c3ccc(Oc4ccccc4)cc3)c3c(N)nn(C4CC4)c(=O)c32)C1 (stereo not drawn) [Example 52] | < 100
C=CC(=O)N1CCC[C@@H](n2cc(-c3ccc(Oc4ccccc4)cc3)c3c(N)n[nH]c(=O)c32)C1 [Example 53] | < 100
C=CC(=O)N1CCCC(n2nc(-c3ccc(Oc4ccccc4C)cc3)c3c(N)n[nH]c(=O)c32)C1 (stereo not drawn) [Example 54] | < 100
C=CC(=O)N1CCCC(n2nc(-c3ccc(Oc4ccc(C)cc4)cc3)c3c(N)n[nH]c(=O)c32)C1 (stereo not drawn) [Example 55] | < 100
C=CC(=O)N1CCCC(n2nc(-c3ccc(Oc4cccc(F)c4)cc3)c3c(N)n[nH]c(=O)c32)C1 (stereo not drawn) [Example 56] | < 100
C=CC(=O)N[C@H]1CC[C@@H](n2nc(-c3ccc(Oc4ccccc4)cc3)c3c(N)n[nH]c(=O)c32)CC1 [Example 57] | < 100
C=CS(=O)(=O)N[C@H]1CC[C@@H](n2nc(-c3ccc(Oc4ccccc4)cc3)c3c(N)n[nH]c(=O)c32)CC1 [Example 58] | < 100
CN(C)C/C=C/C(=O)N[C@H]1CC[C@@H](n2nc(-c3ccc(Oc4ccccc4)cc3)c3c(N)n[nH]c(=O)c32)CC1 [Example 59] | < 100
C=CC(=O)N1CC[C@@H](n2nc(-c3ccc(Oc4ccccc4)cc3)c3c(N)n[nH]c(=O)c32)C1 [Example 60] | < 100
CN(C)C/C=C/C(=O)N1CC[C@@H](n2nc(-c3ccc(Oc4ccccc4)cc3)c3c(N)n[nH]c(=O)c32)C1 [Example 61] | < 100
